50 substances from patent publication US10517889B2, “Modulators of SMAD7 expression” (Ionis Pharmaceuticals, Inc., priority 2017, dated 2019) can be followed below.

Strand notation (5' to 3'): a small letter for the sugar, then the base; units joined by * are phosphorothioate-linked, units joined directly phosphodiester-linked; [ ] holds rarer units or linkages, { } end groups; capitals alone tell only the bases. k = constrained ethyl (cEt); [5mC] = 5-methylcytosine; d = 2'-deoxy (DNA)

For this series, the system named is human SMAD7 mRNA. The series is described as follows: Antisense inhibition of human SMAD7 mRNA expression in Hep3B cells by 3-10-3 cEt gapmers, 10,000 nM, electroporation (Example 2). Format: cell-based. Particulars: SMAD7 mRNA, Hep3B cells, electroporation with 10,000 nM antisense oligonucleotide, approximately 24 hours, primer probe set RTS5062, relative to untreated control cells. In outline:
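Percent inhibition of SMAD7 mRNA, relative to untreated cells, after ~24 h exposure of electroporated Hep3B cells to 10,000 nM cEt gapmer; levels by qRT-PCR, corrected for total RNA.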
In the case of “829795 (kT*kG*kA*dT*d[5mC]*dT*dT*d[5mC]*d[5mC]*d[5mC]*dG*dT*dA*kA*kG*kA; antisense) [compound 829795]”, the “% Inhibition” value is on record as 34%.

Consider “829796 (kT*kT*kG*dA*dT*d[5mC]*dT*dT*d[5mC]*d[5mC]*d[5mC]*dG*dT*kA*kA*kG; antisense) [compound 829796]”, for which the “% Inhibition” value is 27%.

Take “829797 (kG*kG*kT*dT*dG*dA*dT*d[5mC]*dT*dT*d[5mC]*d[5mC]*d[5mC]*kG*kT*kA; antisense) [compound 829797]”: the “% Inhibition” value is 54%. For “829798 (kG*kG*kG*dT*dT*dG*dA*dT*d[5mC]*dT*dT*d[5mC]*d[5mC]*k[5mC]*kG*kT; antisense) [compound 829798]” the value was 26%; for “829799 (kT*k[5mC]*kG*dG*d[5mC]*dT*dA*dA*dG*dG*dT*dG*dA*kT*kG*kG; antisense) [compound 829799]”, 51%; for “829800 (kG*kT*k[5mC]*dG*dG*d[5mC]*dT*dA*dA*dG*dG*dT*dG*kA*kT*kG; antisense) [compound 829800]”, 30%.

As to “829801 (kA*kG*kT*d[5mC]*dG*dG*d[5mC]*dT*dA*dA*dG*dG*dT*kG*kA*kT; antisense) [compound 829801]”, the “% Inhibition” value was 8%. “829802 (kT*kT*k[5mC]*dG*d[5mC]*dA*dG*dA*dG*dT*d[5mC]*dG*dG*k[5mC]*kT*kA; antisense) [compound 829802]”: the “% Inhibition” value turned out to be 28%. For “829803 (kA*kG*kT*dT*d[5mC]*dG*d[5mC]*dA*dG*dA*dG*dT*d[5mC]*kG*kG*k[5mC]; antisense) [compound 829803]” the value was 35%. In the case of “829804 (kT*kA*kG*dT*dT*d[5mC]*dG*d[5mC]*dA*dG*dA*dG*dT*k[5mC]*kG*kG; antisense) [compound 829804]” it was 39%; in that of “829805 (kT*k[5mC]*kT*dA*dG*dT*dT*d[5mC]*dG*d[5mC]*dA*dG*dA*kG*kT*k[5mC]; antisense) [compound 829805]”, 37%. In the case of “829806 (kG*kA*k[5mC]*dT*d[5mC]*dT*dA*dG*dT*dT*d[5mC]*dG*d[5mC]*kA*kG*kA; antisense) [compound 829806]” it was 41%; in that of “829807 (kA*kG*kA*d[5mC]*dT*d[5mC]*dT*dA*dG*dT*dT*d[5mC]*dG*k[5mC]*kA*kG; antisense) [compound 829807]”, 41%. For the substance “829808 (kG*kG*kA*dG*dA*d[5mC]*dT*d[5mC]*dT*dA*dG*dT*dT*k[5mC]*kG*k[5mC]; antisense) [compound 829808]”, the “% Inhibition” value is 53%. For “829809 (kG*kG*kG*dA*dG*dA*d[5mC]*dT*d[5mC]*dT*dA*dG*dT*kT*k[5mC]*kG; antisense) [compound 829809]” the value was 51%; for “829810 (kA*kT*k[5mC]*dG*dG*dG*dT*dA*dT*d[5mC]*dT*dG*dG*kA*kG*kT; antisense) [compound 829810]”, 29%; for “829811 (kT*k[5mC]*k[5mC]*dA*dT*d[5mC]*dG*dG*dG*dT*dA*dT*d[5mC]*kT*kG*kG; antisense) [compound 829811]”, 0%. In the case of “829814 (kG*kT*k[5mC]*dT*dG*d[5mC]*dA*dG*dT*dT*dG*dG*dT*kT*kT*kG; antisense) [compound 829814]” it was 94%; in that of “829822 (kT*kG*kT*dT*dT*d[5mC]*dA*dG*d[5mC]*dG*dG*dA*dG*kG*kA*kA; antisense) [compound 829822]”, 43%; in that of “829829 (kT*k[5mC]*kT*dG*dA*dA*dA*dG*d[5mC]*d[5mC]*d[5mC]*d[5mC]*d[5mC]*k[5mC]*kA*kG; antisense) [compound 829829]”, 11%. For “829830 (kA*kA*kT*d[5mC]*dT*dG*dA*dA*dA*dG*d[5mC]*d[5mC]*d[5mC]*k[5mC]*k[5mC]*k[5mC]; antisense) [compound 829830]” the value was 36%. Regarding “829831 (kG*kA*k[5mC]*d[5mC]*dG*dA*dT*d[5mC]*d[5mC]*d[5mC]*d[5mC]*dA*dG*kG*k[5mC]*kT; antisense) [compound 829831]”, the “% Inhibition” value was 9%. In the case of “829832 (kT*kG*kA*d[5mC]*d[5mC]*dG*dA*dT*d[5mC]*d[5mC]*d[5mC]*d[5mC]*dA*kG*kG*k[5mC]; antisense) [compound 829832]” it was 51%; in that of “829833 (kG*kT*kG*dA*d[5mC]*d[5mC]*dG*dA*dT*d[5mC]*d[5mC]*d[5mC]*d[5mC]*kA*kG*kG; antisense) [compound 829833]”, 0%. For “829834 (kG*kT*kG*dT*dG*dA*d[5mC]*d[5mC]*dG*dA*dT*d[5mC]*d[5mC]*k[5mC]*k[5mC]*kA; antisense) [compound 829834]” the value was 29%; for “829835 (k[5mC]*kA*kG*dT*dG*dT*dG*dA*d[5mC]*d[5mC]*dG*dA*dT*k[5mC]*k[5mC]*k[5mC]; antisense) [compound 829835]”, 52%.

For “829836 (k[5mC]*k[5mC]*kA*dG*dT*dG*dT*dG*dA*d[5mC]*d[5mC]*dG*dA*kT*k[5mC]*k[5mC]; antisense) [compound 829836]”, the “% Inhibition” value was determined as 48%. For “829837 (k[5mC]*k[5mC]*kA*dG*dT*dA*dT*dG*d[5mC]*d[5mC]*dA*d[5mC]*d[5mC]*kA*k[5mC]*kG; antisense) [compound 829837]” the value was 16%; for “829838 (k[5mC]*k[5mC]*k[5mC]*dA*dG*dT*dA*dT*dG*d[5mC]*d[5mC]*dA*d[5mC]*k[5mC]*kA*k[5mC]; antisense) [compound 829838]”, 28%. For “829839 (kA*k[5mC]*kA*d[5mC]*dA*dG*dT*dA*dG*dA*dG*d[5mC]*d[5mC]*kT*k[5mC]*k[5mC]; antisense) [compound 829839]” the value was 8%.

Regarding “829840 (kG*kG*kA*d[5mC]*dA*d[5mC]*dA*dG*dT*dA*dG*dA*dG*k[5mC]*k[5mC]*kT; antisense) [compound 829840]”, the “% Inhibition” value worked out at 0%. For “829841 (kT*kG*kG*dA*d[5mC]*dA*d[5mC]*dA*dG*dT*dA*dG*dA*kG*k[5mC]*k[5mC]; antisense) [compound 829841]” the value was 50%; for “829842 (k[5mC]*k[5mC]*kG*dA*dG*dG*d[5mC]*dA*dA*dA*dA*dG*d[5mC]*k[5mC]*kA*kT; antisense) [compound 829842]”, 26%. For “829843 (antisense kG*kA*kA*dT*dT*dG*dA*dG*d[5mC]*dT*dG*dT*d[5mC]*k[5mC]*kG*kA) [compound 829843]” the value was 49%; for “829844 (antisense k[5mC]*kG*kA*dA*dT*dT*dG*dA*dG*d[5mC]*dT*dG*dT*k[5mC]*k[5mC]*kG) [compound 829844]”, 49%; for “829845 (antisense kT*k[5mC]*k[5mC]*dG*dA*dA*dT*dT*dG*dA*dG*d[5mC]*dT*kG*kT*k[5mC]) [compound 829845]”, 40%. Take “829846 (antisense kG*kT*k[5mC]*d[5mC]*dG*dA*dA*dT*dT*dG*dA*dG*d[5mC]*kT*kG*kT) [compound 829846]”: the “% Inhibition” value turned out to be 29%. In the case of “829847 (antisense kT*kG*kT*d[5mC]*d[5mC]*dG*dA*dA*dT*dT*dG*dA*dG*k[5mC]*kT*kG) [compound 829847]” it was 64%; in that of “829848 (antisense kT*kT*kG*dT*d[5mC]*d[5mC]*dG*dA*dA*dT*dT*dG*dA*kG*k[5mC]*kT) [compound 829848]”, 47%.

Take “829849 (antisense kT*kG*kT*dT*dG*dT*d[5mC]*d[5mC]*dG*dA*dA*dT*dT*kG*kA*kG) [compound 829849]”: the “% Inhibition” value came out at 49%. For “829850 (antisense kT*kT*kG*dT*dT*dG*dT*d[5mC]*d[5mC]*dG*dA*dA*dT*kT*kG*kA) [compound 829850]” the value was 36%.

As to “829851 (antisense k[5mC]*kT*kT*dG*dT*dT*dG*dT*d[5mC]*d[5mC]*dG*dA*dA*kT*kT*kG) [compound 829851]”, the “% Inhibition” value worked out at 31%. In the case of “829852 (antisense kT*k[5mC]*kT*dT*dG*dT*dT*dG*dT*d[5mC]*d[5mC]*dG*dA*kA*kT*kT) [compound 829852]” it was 33%.

Take “829853 (antisense kA*k[5mC]*kT*d[5mC]*dT*dT*dG*dT*dT*dG*dT*d[5mC]*d[5mC]*kG*kA*kA) [compound 829853]”: the “% Inhibition” value is reported as 42%. In the case of “829854 (antisense kG*k[5mC]*kT*dG*dA*d[5mC]*dT*d[5mC]*dT*dT*dG*dT*dT*kG*kT*k[5mC]) [compound 829854]”, the “% Inhibition” value is on record as 25%. With “829855 (antisense kA*kG*k[5mC]*dT*dG*dA*d[5mC]*dT*d[5mC]*dT*dT*dG*dT*kT*kG*kT) [compound 829855]”, the “% Inhibition” value stood at 0%.

For the substance “829856 (antisense kA*k[5mC]*k[5mC]*dA*dG*d[5mC]*dT*dG*dA*d[5mC]*dT*d[5mC]*dT*kT*kG*kT) [compound 829856]”, the “% Inhibition” value came to 41%. For “829857 (antisense kT*kG*k[5mC]*dA*d[5mC]*d[5mC]*dA*dG*d[5mC]*dT*dG*dA*d[5mC]*kT*k[5mC]*kT) [compound 829857]” the value was 31%; for “829858 (antisense kT*kG*k[5mC]*dT*d[5mC]*d[5mC]*dG*d[5mC]*dA*d[5mC]*d[5mC]*dT*dT*k[5mC]*kT*kG) [compound 829858]”, 59%; for “829859 (antisense kT*kT*kT*dT*dG*d[5mC]*dT*d[5mC]*d[5mC]*dG*d[5mC]*dA*d[5mC]*k[5mC]*kT*kT) [compound 829859]”, 39%.

The term % Inhibition denotes how much of the control response was suppressed. Low readings indicate a weak effect, high ones a strong effect.
